ChEMBL document CHEMBL5380773, “Novel Feleucin-K3-Derived Peptides Modified with Sulfono-γ-AA Building Blocks Targeting Pseudomonas aeruginosa and Methicillin-Resistant Staphylococcus aureus Infections” (J Med Chem, 2023)
Numbered stars: 1 amine (or outer) side, 2 acyl side, 3 side chain; on linkers, the order of the positions; unused ones are H or OH. Square brackets hold non-standard residues; d marks the D form. Peptide text beside a SMILES is read from it. * marks the point of attachment. X21 = CC(C)c1cc(C(C)C)c(S(=O)(=O)N(CC(N)=O)C[C@H](Cc2ccccc2)N*)c(C(C)C)c1; X14 = CC(C)C[C@@H](CN(CC(N)=O)S(=O)(=O)c1c(C(C)C)cc(C(C)C)cc1C(C)C)N*; X12 = NC(=O)CN(C[C@H](Cc1ccccc1)N*)S(=O)(=O)c1ccc([N+](=O)[O-])cc1; X11 = CC(C)C[C@@H](CN(CC(N)=O)S(=O)(=O)c1ccc([N+](=O)[O-])cc1)N*; X9 = NC(=O)CN(C[C@H](Cc1ccccc1)N*)S(=O)(=O)c1ccccc1[N+](=O)[O-]; X17 = CC(C)C[C@@H](CN(CC(N)=O)S(=O)(=O)c1ccccc1[N+](=O)[O-])N*; X13 = NC(=O)CN(C[C@H](Cc1ccccc1)N*)S(=O)(=O)c1ccc(Br)cc1; X18 = NC(=O)CN(C[C@H](Cc1ccccc1)N*)S(=O)(=O)c1ccc(Cl)cc1; X19 = COc1ccc(S(=O)(=O)N(CC(N)=O)C[C@H](Cc2ccccc2)N*)cc1; X15 = NC(=O)CN(C[C@H](Cc1ccccc1)N*)S(=O)(=O)c1ccc(I)cc1; X7 = NC(=O)CN(C[C@H](Cc1ccccc1)N*)S(=O)(=O)c1cccc(Cl)c1; X16 = CC(C)C[C@@H](CN(CC(N)=O)S(=O)(=O)c1ccc(Cl)cc1)N*; X6 = COc1ccc(S(=O)(=O)N(CC(N)=O)C[C@H](CC(C)C)N*)cc1; X8 = CC(C)C[C@@H](CN(CC(N)=O)S(=O)(=O)c1ccc(I)cc1)N*; X3 = N[C@@H](Cc1ccccc1)CN(CC(=O)[*:2])[*:1]; Brosyl = O=S(=O)(c1ccc(Br)cc1)*

Test system: Erythrocyte
Assay: Hemolytic activity against mouse red blood cells incubated for 1 hr
Assay type: toxicity, cell-based

Compound	MHC [µg/mL]
CC(C)C[C@H](NC(=O)[C@H](CC(C)C)NC(=O)[C@H](CCCCN)NC(=O)[C@H](CCCCN)NC(=O)[C@H](CC(C)C)NC(=O)[C@H](CC(C)C)NC(=O)[C@H](CCCCN)NC(=O)CN(C[C@@H](N)Cc1ccccc1)S(=O)(=O)c1ccc(Br)cc1)C(N)=O (Brosyl-[X3]KLLKKLL-NH2)	64
COc1ccc(S(=O)(=O)N(CC(N)=O)C[C@H](CC(C)C)NC(=O)[C@H](CCCCN)NC(=O)[C@H](CCCCN)NC(=O)[C@H](CC(C)C)NC(=O)[C@H](CC(C)C)NC(=O)[C@H](CCCCN)NC(=O)[C@H](CC(C)C)NC(=O)[C@@H](N)Cc2ccccc2)cc1 (H-FLKLLKK-X6)	256
CC(C)C[C@H](NC(=O)[C@H](CC(C)C)NC(=O)[C@H](CCCCN)NC(=O)[C@H](CC(C)C)NC(=O)[C@@H](N)Cc1ccccc1)C(=O)N[C@@H](CCCCN)C(=O)N[C@@H](CCCCN)C(=O)N[C@@H](Cc1ccccc1)CN(CC(N)=O)S(=O)(=O)c1cccc(Cl)c1 (H-FLKLLKK-X7)	256
CC(C)C[C@@H](CN(CC(N)=O)S(=O)(=O)c1ccc(I)cc1)NC(=O)[C@H](CCCCN)NC(=O)[C@H](CCCCN)NC(=O)[C@H](CC(C)C)NC(=O)[C@H](CC(C)C)NC(=O)[C@H](CCCCN)NC(=O)[C@H](CC(C)C)NC(=O)[C@@H](N)Cc1ccccc1 (H-FLKLLKK-X8)	256
CC(C)C[C@H](NC(=O)[C@H](CC(C)C)NC(=O)[C@H](CCCCN)NC(=O)[C@H](CC(C)C)NC(=O)[C@@H](N)Cc1ccccc1)C(=O)N[C@@H](CCCCN)C(=O)N[C@@H](CCCCN)C(=O)N[C@@H](Cc1ccccc1)CN(CC(N)=O)S(=O)(=O)c1ccccc1[N+](=O)[O-] (H-FLKLLKK-X9)	256
CC(C)C[C@@H](CN(CC(N)=O)S(=O)(=O)c1ccc([N+](=O)[O-])cc1)NC(=O)[C@H](CCCCN)NC(=O)[C@H](CCCCN)NC(=O)[C@H](CC(C)C)NC(=O)[C@H](CC(C)C)NC(=O)[C@H](CCCCN)NC(=O)[C@H](CC(C)C)NC(=O)[C@@H](N)Cc1ccccc1 (H-FLKLLKK-X11)	256
CC(C)C[C@H](NC(=O)[C@H](CC(C)C)NC(=O)[C@H](CCCCN)NC(=O)[C@H](CC(C)C)NC(=O)[C@@H](N)Cc1ccccc1)C(=O)N[C@@H](CCCCN)C(=O)N[C@@H](CCCCN)C(=O)N[C@@H](Cc1ccccc1)CN(CC(N)=O)S(=O)(=O)c1ccc([N+](=O)[O-])cc1 (H-FLKLLKK-X12)	256
CC(C)C[C@H](NC(=O)[C@H](CC(C)C)NC(=O)[C@H](CCCCN)NC(=O)[C@H](CC(C)C)NC(=O)[C@@H](N)Cc1ccccc1)C(=O)N[C@@H](CCCCN)C(=O)N[C@@H](CCCCN)C(=O)N[C@@H](Cc1ccccc1)CN(CC(N)=O)S(=O)(=O)c1ccc(Br)cc1 (H-FLKLLKK-X13)	256
CC(C)C[C@@H](CN(CC(N)=O)S(=O)(=O)c1c(C(C)C)cc(C(C)C)cc1C(C)C)NC(=O)[C@H](CCCCN)NC(=O)[C@H](CCCCN)NC(=O)[C@H](CC(C)C)NC(=O)[C@H](CC(C)C)NC(=O)[C@H](CCCCN)NC(=O)[C@H](CC(C)C)NC(=O)[C@@H](N)Cc1ccccc1 (H-FLKLLKK-X14)	32
CC(C)C[C@H](NC(=O)[C@H](CC(C)C)NC(=O)[C@H](CCCCN)NC(=O)[C@H](CC(C)C)NC(=O)[C@@H](N)Cc1ccccc1)C(=O)N[C@@H](CCCCN)C(=O)N[C@@H](CCCCN)C(=O)N[C@@H](Cc1ccccc1)CN(CC(N)=O)S(=O)(=O)c1ccc(I)cc1 (H-FLKLLKK-X15)	128
CC(C)C[C@@H](CN(CC(N)=O)S(=O)(=O)c1ccc(Cl)cc1)NC(=O)[C@H](CCCCN)NC(=O)[C@H](CCCCN)NC(=O)[C@H](CC(C)C)NC(=O)[C@H](CC(C)C)NC(=O)[C@H](CCCCN)NC(=O)[C@H](CC(C)C)NC(=O)[C@@H](N)Cc1ccccc1 (H-FLKLLKK-X16)	256
CC(C)C[C@@H](CN(CC(N)=O)S(=O)(=O)c1ccccc1[N+](=O)[O-])NC(=O)[C@H](CCCCN)NC(=O)[C@H](CCCCN)NC(=O)[C@H](CC(C)C)NC(=O)[C@H](CC(C)C)NC(=O)[C@H](CCCCN)NC(=O)[C@H](CC(C)C)NC(=O)[C@@H](N)Cc1ccccc1 (H-FLKLLKK-X17)	256
CC(C)C[C@H](NC(=O)[C@H](CC(C)C)NC(=O)[C@H](CCCCN)NC(=O)[C@H](CC(C)C)NC(=O)[C@@H](N)Cc1ccccc1)C(=O)N[C@@H](CCCCN)C(=O)N[C@@H](CCCCN)C(=O)N[C@@H](Cc1ccccc1)CN(CC(N)=O)S(=O)(=O)c1ccc(Cl)cc1 (H-FLKLLKK-X18)	128
COc1ccc(S(=O)(=O)N(CC(N)=O)C[C@H](Cc2ccccc2)NC(=O)[C@H](CCCCN)NC(=O)[C@H](CCCCN)NC(=O)[C@H](CC(C)C)NC(=O)[C@H](CC(C)C)NC(=O)[C@H](CCCCN)NC(=O)[C@H](CC(C)C)NC(=O)[C@@H](N)Cc2ccccc2)cc1 (H-FLKLLKK-X19)	256
CC(C)C[C@H](NC(=O)[C@H](CC(C)C)NC(=O)[C@H](CCCCN)NC(=O)[C@H](CC(C)C)NC(=O)[C@@H](N)Cc1ccccc1)C(=O)N[C@@H](CCCCN)C(=O)N[C@@H](CCCCN)C(=O)N[C@@H](Cc1ccccc1)CN(CC(N)=O)S(=O)(=O)c1c(C(C)C)cc(C(C)C)cc1C(C)C (H-FLKLLKK-X21)	32
